Laboratory results reported in patent US20250092044A1, “Kinase Inhibitors” (Incyte Corporation, priority 2023, published 2025).

Tests used:
[1] = target: pseudo-kinase domain (JH2) of human V617F mutant JAK2 (Homo sapiens (Human), UniProt O60674, F794H/V617F/W659A/W777A); assay: JAK2 LanthaScreen JH2-V617F Binding Assay; conditions: read-out: JH2 V617F Bind IC50
Description: JAK2 JH2-V617F binding assay utilizes pseudo-kinase domain (JH2, amino-acids 536-812 with 3 surface mutations W659A, W777A, F794H) of human V617F mutant JAK2 expressed as C-terminal His-Avi-tagged, biotinylated protein in a baculovirus expression system (BPS Bioscience, Catalog #79498). The assay was conducted in black 384-well polystyrene plates in a final reaction volume of 20 μL. JAK2 JH2-V617F (0.26 nM) was incubated with compounds (100 nL serially diluted in DMSO) in the presence of 50 nM Fluorescent JAK2-JH2 Tracer (MedChem Express Catalog #HY-102055) and 0.25 nM Streptavidin-Tb cryptate (Cisbio Part #610SATLB) in assay buffer (50 mM Tris, pH=7.5, 10 mM MgCl2, 0.01% Brij-35, 0.1% BSA, 1 mM EGTA, 5% Glycerol and 5 mM DTT). Non-specific binding was accessed in the presence of 2 mM ATP. After incubation for 1 hour at 25° C., LanthaScreen signals were read on a PHERAstar FS plate reader (BMG LABTECH). Data was analyzed with IDBS XLfit and GraphPad Prism 5.0 software using a four parameter dose response curve to determine IC50 for each compound.

[2] = target: catalytic domain (JH1) of human JAK2 (Homo sapiens (Human), UniProt O60674); assay: JAK2 LanthaScreen JH1 Binding Assay; conditions: read-out: JH1 Bind IC50
Chain of catalytic domain (JH1) of human JAK2 (O60674 826-1132): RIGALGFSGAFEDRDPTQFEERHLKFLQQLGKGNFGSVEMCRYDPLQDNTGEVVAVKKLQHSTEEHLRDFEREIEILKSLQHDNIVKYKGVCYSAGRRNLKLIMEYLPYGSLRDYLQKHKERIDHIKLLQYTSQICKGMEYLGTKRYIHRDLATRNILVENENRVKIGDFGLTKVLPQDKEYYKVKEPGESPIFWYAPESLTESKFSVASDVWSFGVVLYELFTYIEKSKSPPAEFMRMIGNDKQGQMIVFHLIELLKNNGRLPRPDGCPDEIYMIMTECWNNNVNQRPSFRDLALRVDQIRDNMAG
Description: JAK2 JH1 binding assay utilizes catalytic domain (JH1, amino acids 826-1132) of human JAK2 expressed as N-terminal FLAG-tagged, biotinylated protein in a baculovirus expression system (Carna Biosciences, Product #08-445-20N). The assay was conducted in black 384-well polystyrene plates in a final reaction volume of 20 μL. JAK2 JH1 (1.5 nM) was incubated with compounds (100 nL serially diluted in DMSO) in the presence of 50 nM fluorescent JAK2-JH1 tracer and 0.5 nM Streptavidin-Tb cryptate (Cisbio Part #610SATLB) in assay buffer (50 mM Tris, pH=7.5, 10 mM MgCl2, 0.01% Brij-35, 0.1% BSA, 1 mM EGTA, 5% Glycerol and 5 mM DTT). Non-specific binding was accessed in the presence of 2 mM ATP. After incubation for 2 hours at 25° C., LanthaScreen signals were read on a PHERAstar FS plate reader (BMG LABTECH). Data was analyzed with IDBS XLfit and GraphPad Prism 5.0 software using a four parameter dose response curve to determine IC50 for each compound.

[3] = target: FLT3 (Homo sapiens (Human), UniProt P36888); assay: FLT3 Enzymatic Assay; type: biochemical; conditions: 1 mM ATP
Chain of FLT3 (Homo sapiens (Human), UniProt P36888) (P36888 27-993, species assumed): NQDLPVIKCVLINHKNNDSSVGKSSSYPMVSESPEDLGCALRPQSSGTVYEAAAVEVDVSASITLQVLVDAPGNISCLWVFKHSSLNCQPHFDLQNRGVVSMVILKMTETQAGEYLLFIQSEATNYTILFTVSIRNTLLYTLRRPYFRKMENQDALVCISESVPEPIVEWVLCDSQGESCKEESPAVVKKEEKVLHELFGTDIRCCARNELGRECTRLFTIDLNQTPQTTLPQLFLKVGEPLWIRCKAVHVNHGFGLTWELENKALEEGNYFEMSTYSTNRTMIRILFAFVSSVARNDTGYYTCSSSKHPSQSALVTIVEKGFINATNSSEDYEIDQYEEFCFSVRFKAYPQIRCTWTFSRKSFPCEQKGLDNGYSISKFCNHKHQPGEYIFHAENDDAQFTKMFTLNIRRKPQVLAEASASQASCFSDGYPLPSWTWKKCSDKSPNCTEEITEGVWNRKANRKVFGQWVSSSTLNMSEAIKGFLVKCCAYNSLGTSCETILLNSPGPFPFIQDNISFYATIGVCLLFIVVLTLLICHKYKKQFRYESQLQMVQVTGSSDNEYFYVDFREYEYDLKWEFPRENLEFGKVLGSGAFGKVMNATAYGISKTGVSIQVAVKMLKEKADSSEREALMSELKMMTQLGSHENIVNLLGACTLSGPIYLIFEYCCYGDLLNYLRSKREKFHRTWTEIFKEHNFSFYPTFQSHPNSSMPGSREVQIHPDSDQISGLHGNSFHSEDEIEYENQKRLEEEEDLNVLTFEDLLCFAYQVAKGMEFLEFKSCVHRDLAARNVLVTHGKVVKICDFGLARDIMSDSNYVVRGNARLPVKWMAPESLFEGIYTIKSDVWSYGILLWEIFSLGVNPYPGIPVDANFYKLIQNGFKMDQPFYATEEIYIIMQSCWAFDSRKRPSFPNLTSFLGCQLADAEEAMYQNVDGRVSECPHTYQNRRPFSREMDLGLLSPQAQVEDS
Description: (§1) The kinase assays were carried out at room temperature in assay buffer (HEPES 50 mM, pH 7.0, NaN3 0.02%, BSA 0.01%, Orthovanadate 0.1 mM, DTT 1 mM, MgCl2 10 mM) in a final volume of 10 μL. Testing compounds were prepared by serial dilution in DMSO and transferred to the plate wells by ECHO liquid handler (Labcyte) with 0.5% DMSO in the final assay. […]. Reactions were initiated by the addition of 5 μL ATP in assay buffer. The final 10 μL kinase reaction consists of 0.011 nM FLT3, 1 mM ATP, 500 nM TK Substrate-biotin and SEB reagent 62.5 nM in assay buffer. […] The plates were then sealed and centrifuged at 1800 rpm for 2 minutes. After 60 minutes incubation at room temperature, the product activity was determined by measuring the fluorescence at 620 nm and 665 nm on Pherastar microplate reader (BMG Labtech). A ratio is calculated (665/620 nm) for each well. Wells with DMSO only were served as the positive controls and wells containing no ATP were used as negative controls. IC50 determination was performed by fitting the curve of percent control activity versus the log of the compound concentration using the GraphPad Prism 7.0 software.

[4] = tested on: FLT3; assay: FLT3 Enzymatic Assay; type: biochemical
Description: as §1

[5] = target: TRKA (Homo sapiens (Human), UniProt P04629); assay: TRKA Enzymatic Assay; type: biochemical; conditions: 1 mM ATP
Chain of TRKA (Homo sapiens (Human), UniProt P04629) (P04629 33-796, species assumed): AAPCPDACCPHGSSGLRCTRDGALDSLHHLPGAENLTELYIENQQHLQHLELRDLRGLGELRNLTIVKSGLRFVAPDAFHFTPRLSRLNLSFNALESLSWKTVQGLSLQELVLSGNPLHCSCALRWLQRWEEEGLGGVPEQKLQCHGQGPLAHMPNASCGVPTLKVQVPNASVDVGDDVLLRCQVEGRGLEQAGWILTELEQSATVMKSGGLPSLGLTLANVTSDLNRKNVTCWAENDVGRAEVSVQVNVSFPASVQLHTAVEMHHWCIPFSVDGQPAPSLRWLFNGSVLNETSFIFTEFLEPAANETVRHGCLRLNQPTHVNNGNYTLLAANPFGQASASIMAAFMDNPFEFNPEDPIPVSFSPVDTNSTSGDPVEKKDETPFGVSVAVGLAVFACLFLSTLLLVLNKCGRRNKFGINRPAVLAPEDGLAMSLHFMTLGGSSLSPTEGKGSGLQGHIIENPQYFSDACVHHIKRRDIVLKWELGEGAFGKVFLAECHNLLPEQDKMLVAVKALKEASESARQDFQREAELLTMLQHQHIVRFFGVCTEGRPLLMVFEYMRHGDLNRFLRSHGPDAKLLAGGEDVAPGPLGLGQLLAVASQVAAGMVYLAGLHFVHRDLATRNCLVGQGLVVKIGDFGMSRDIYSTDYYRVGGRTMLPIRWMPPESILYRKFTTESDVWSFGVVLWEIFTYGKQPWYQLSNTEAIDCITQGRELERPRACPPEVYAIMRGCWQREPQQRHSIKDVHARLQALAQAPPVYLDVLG
Description: (§2) The kinase assays were carried out at 24° C. temperature in assay buffer (HEPES 50 mM, pH 7.0, NaN3 0.02%, BSA 0.01%, Orthovanadate 0.1 mM, DTT 1 mM, MgCl2 10 mM) in a final volume of 10 μL. Testing compounds were prepared by serial dilution in DMSO and transferred to the plate wells by ECHO liquid handler (Labcyte) with 0.5% DMSO in the final assay. […]. Reactions were initiated by the addition of 5 μL ATP in assay buffer. The final 10 μL kinase reaction consisted of 0.58 nM TRKA, 1 mM ATP, 500 nM TK Substrate-biotin and SEB reagent 62.5 nM in assay buffer. […] After 60 minutes incubation at room temperature, the product activity was determined by measuring the fluorescence at 620 nm and 665 nm on Pherastar microplate reader (BMG Labtech). A ratio was calculated (665/620 nm) for each well. Wells with DMSO only served as the positive controls and wells containing no ATP were used as negative controls. IC50 determination was performed by fitting the curve of percent control activity versus the log of the compound concentration using the Gene data.

[6] = tested on: TRKA; assay: TRKA Enzymatic Assay; type: biochemical
Description: as §2

[7] = tested on: STAT5 (Tyr694) phosphorylation in SET-2 cells; assay: STAT5 (Tyr694) Phosphorylation Cell Based Assay; conditions: Homo sapiens, 2 hours, read-out: SET2 IC50
Description: SET-2 cells was purchased from DSMZ (Germany). RPMI1640 medium, Fetal Bovine Serum and 384-white sold flat-bottom small volume plate were purchased from Thermo Fisher Scientific (Waltham, MA). Phospho-STAT5 (Tyr694) HTRF kit was purchased from Perkin Elmer (Waltham, MA).
SET-2 cells were cultured in RPMI media with 20% FBS at 37° C. in humidified incubator supplied with 5% CO2. On the day of assay, the cells were centrifuged to remove the culture media and resuspended with prewarmed RPMI with 10% FBS. Testing compounds were prepared by serial dilution in DMSO and 50 nL/well test compounds were transferred to the 384 white low volume cell culture plate (Greiner Bio-one) by ECHO liquid handler (Labcyte). The cells were then dispensed with Multidrop (Thermo Fisher, Waltham, MA) at 10 μL/well (7×10^6 cells/mL) with 0.5% DMSO in the final assay. After the treated cells were incubated for 2 hours at 37° C./5% CO2 incubator, 4 μL/well supplemented lysis buffer (100× blocking buffer diluted 25 fold in 4× lysis buffer, Perkin Elmer) were added and incubated at room temperature for 90 min on orbital shaker at 600 rpm. Phospho-STAT5 Cryptate antibody and Phospho-STAT5 d2 antibody (1:1 vol/vol) were premixed and diluted 20 fold with in the detection buffer (Perkin Elmer). 4 μL of the premixed antibody solution were added to each well followed with 24 hours incubation at room temperature on orbital shaker at 600 rpm. The product activity was determined by measuring the fluorescence at 620 nm and 665 nm on Pherastar microplate reader (BMG Labtech). A ratio is calculated (665/620) for each well. Wells with DMSO only served as the positive controls and wells containing high concentration of control compound were used as negative controls. IC50 determination was performed by fitting the curve of percent control activity versus the log of the compound concentration using the GraphPad Prism 7.0 software.

Chain of pseudo-kinase domain (JH2) of human V617F mutant JAK2 (O60674 536-812 V617F/W659A/W777A/F794H): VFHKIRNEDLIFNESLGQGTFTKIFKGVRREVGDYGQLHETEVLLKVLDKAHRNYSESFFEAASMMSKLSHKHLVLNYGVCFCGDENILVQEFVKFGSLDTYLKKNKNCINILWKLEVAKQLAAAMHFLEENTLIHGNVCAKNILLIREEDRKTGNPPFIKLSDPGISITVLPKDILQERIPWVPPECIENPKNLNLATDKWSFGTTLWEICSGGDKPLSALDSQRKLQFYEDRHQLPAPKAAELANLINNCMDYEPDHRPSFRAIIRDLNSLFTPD

Row | SMILES | IC50 [1] [µM] | IC50 [2] [µM] | IC50 [3] [µM] | Selectivity FLT3/JH2 V617F [4] | IC50 [5] [µM] | Selectivity TRKA/JH2 V617F [6] | IC50 [7] [µM]
1 | COCCNC(=O)c1ccc(-c2[nH]c3ncc4c(c3c2-c2ccc3c(cnn3C(C)C)c2)n([C@@H]2CC[C@@H](NC(=O)OC)C2)c(=O)n4C)cc1 [Example 19, Methyl ((1R,3R)-3-(8-(1-isopropyl-1H-indazol-5-yl)-7-(4-((2-methoxyethyl)carbamoyl)phenyl)-3-methyl-2-oxo-3,6-dihydroimidazo[4,5-d]pyrrolo[2,3-b]pyridin-1(2H)-yl)cyclopentyl)carbamate] | ≤ 0.01 | > 1 | 0.25 to 1.25 | **** (selectivity of >1750-fold to ≤5000-fold) | 1.25 to 2.5 | ****** (selectivity of >12500-fold) | ≤ 0.3
2 | COC(=O)N[C@@H]1CC[C@@H](n2c(=O)n(C)c3cnc4[nH]c(-c5ccc(C(=O)NCCCNc6ccccc6)c(F)c5)c(-c5ccc6c(cnn6C(C)C)c5)c4c32)C1 [Example 7, Methyl ((1R,3R)-3-(7-(3-fluoro-4-((3-(phenylamino)propyl)carbamoyl)phenyl)-8-(1-isopropyl-1H-indazol-5-yl)-3-methyl-2-oxo-3,6-dihydroimidazo[4,5-d]pyrrolo[2,3-b]pyridin-1(2H)-yl)cyclopentyl)carbamate] | ≤ 0.01 | > 1 | > 2.5 | ***** (selectivity of >5000-fold to ≤12500-fold) | > 2.5 | ***** (selectivity of >5000-fold to ≤12500-fold) | > 0.8
3 | COC(=O)N[C@@H]1CC[C@@H](n2c(=O)n(C)c3cnc4[nH]c(-c5ccc(C(=O)N6C7CCC6COC7)c(OC)c5)c(-c5cccc(F)c5)c4c32)C1 [Example 5, Methyl ((1R,3R)-3-(7-(4-(3-oxa-8-azabicyclo[3.2.1]octane-8-carbonyl)-3-methoxyphenyl)-8-(3-fluorophenyl)-3-methyl-2-oxo-3,6-dihydroimidazo[4,5-d]pyrrolo[2,3-b]pyridin-1(2H)-yl)cyclopentyl)carbamate] | ≤ 0.01 | > 1 | 1.25 to 2.5 | ***** (selectivity of >5000-fold to ≤12500-fold) | 0.25 to 1.25 | ** (selectivity of >500-fold to ≤1500-fold) | > 0.8
4 | COC(=O)N[C@@H]1CC[C@@H](n2c(=O)n(C)c3cnc4[nH]c(-c5ccc(C(=O)N(C)C)cc5)c(-c5ccc6c(cnn6C(C)C)c5)c4c32)C1 [Example 22, Methyl ((1R,3R)-3-(7-(4-(dimethylcarbamoyl)phenyl)-8-(1-isopropyl-1H-indazol-5-yl)-3-methyl-2-oxo-3,6-dihydroimidazo[4,5-d]pyrrolo[2,3-b]pyridin-1(2H)-yl)cyclopentyl)carbamate] | ≤ 0.01 | > 1 | 0.25 to 1.25 | ***** (selectivity of >5000-fold to ≤12500-fold) | 0.25 to 1.25 | ***** (selectivity of >5000-fold to ≤12500-fold) | ≤ 0.3
5 | CCNC(=O)c1ccc(-c2[nH]c3ncc4c(c3c2-c2ccc3c(cnn3C(C)C)c2)n([C@@H]2CC[C@@H](NC(=O)OC)C2)c(=O)n4C)cc1OC [Example 18, Methyl ((1R,3R)-3-(7-(4-(ethylcarbamoyl)-3-methoxyphenyl)-8-(1-isopropyl-1H-indazol-5-yl)-3-methyl-2-oxo-3,6-dihydroimidazo[4,5-d]pyrrolo[2,3-b]pyridin-1(2H)-yl)cyclopentyl)carbamate] | ≤ 0.01 | > 1 | 0.25 to 1.25 | **** (selectivity of >1750-fold to ≤5000-fold) | 1.25 to 2.5 | ***** (selectivity of >5000-fold to ≤12500-fold) | ≤ 0.3
